In publication PMC2847038 (Hippocampus, 2010):

Biological target: T1, fatty acid amide hydrolase (FAAH) (Rattus norvegicus, UniProt P97612)
T1 sequence (P97612 1-579): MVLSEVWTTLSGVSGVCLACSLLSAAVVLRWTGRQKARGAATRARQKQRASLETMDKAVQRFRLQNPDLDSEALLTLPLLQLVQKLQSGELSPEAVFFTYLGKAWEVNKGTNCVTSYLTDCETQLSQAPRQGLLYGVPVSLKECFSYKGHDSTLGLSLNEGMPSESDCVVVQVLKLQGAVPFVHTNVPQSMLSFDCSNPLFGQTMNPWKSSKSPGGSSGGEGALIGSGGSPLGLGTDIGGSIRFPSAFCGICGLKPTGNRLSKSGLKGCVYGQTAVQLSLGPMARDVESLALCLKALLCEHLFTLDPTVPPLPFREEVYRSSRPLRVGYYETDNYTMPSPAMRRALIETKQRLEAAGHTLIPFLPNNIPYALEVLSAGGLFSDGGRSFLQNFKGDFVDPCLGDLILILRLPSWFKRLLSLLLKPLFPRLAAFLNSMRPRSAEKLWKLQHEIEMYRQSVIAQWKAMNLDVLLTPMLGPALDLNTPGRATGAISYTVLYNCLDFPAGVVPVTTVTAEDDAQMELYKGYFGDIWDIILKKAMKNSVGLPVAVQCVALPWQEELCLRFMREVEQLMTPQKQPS
Experiment: Fatty acid amide hydrolase activity assay
Type: biochemical, Sprague-Dawley rats
Settings: hippocampus membranes

CCCCC/C=C\C/C=C\C/C=C\C/C=C\CCCC(=O)NCCO [anandamide, N-arachidonylethanolamide]
Vmax (maximal hydrolytic activity of FAAH) (CON animals): 619.4 +/- 56.9 pmol/mg protein
Vmax (maximal hydrolytic activity of FAAH) (VEx animals): 556.7 +/- 99.4 pmol/mg protein
